Test results from patent US20250127863A1, “ANTIMICROBIAL PEPTIDE FOR ONYCHOMYCOSIS” (CBMR SCIENTIFIC NANOSCIENCE B.V., priority 2019, published 2025).
No end group written: not given here.

Experiments:
C. albicans CBS-562 = test: MIC90 growth inhibition; type: cell-based, Candida albicans; conditions: RPMI 1640 one-fourth strength
Description: (§1) The minimum inhibitory concentration (MIC) value is defined as the lowest sample concentration that inhibited growth. In the Examples, the MIC90 value is presented, which MIC90 values are determined according to established methods known to the person with the skills in the relevant art. Experiments; 1×10E5 CFU of various strains/ml were incubated for 24-48 h at 37° C. in 4× diluted medium of RPMI 1640 with the indicated concentrations of antimicrobial peptide hLF(1-11) [SEQ ID NO: 3]. As controls various strains cells were incubated for 24-48 h at 37° C. with no agent (antimicrobial peptide), and subsequently, growth of the microbial organism (e.g. yeast, bacterium) was monitored by using spectrophotometry with a spectrophotometer at 620 nm. […] ND=Not done. Representative single assay data are listed rather than a range, for clarity reasons and for ease of comparison of peptide efficacy. The MIC was calculated as the lowest antibiotic (antimicrobial peptide) concentration at which growth of the assessed yeast or bacterium (microbe) was inhibited (inhibitory concentration IC90).

C. albicans ATCC 10231 = test: MIC90 growth inhibition; type: cell-based, Candida albicans; conditions: RPMI 1640 one-fourth strength
Description: as §1

C. albicans (WT) = test: MIC90 growth inhibition; type: cell-based, Candida albicans; conditions: RPMI 1640 one-fourth strength
Description: as §1

C. albicans CMC-1968 = test: MIC90 growth inhibition; type: cell-based, Candida albicans; conditions: RPMI 1640 one-fourth strength
Description: as §1

C. albicans AA (LUMC) = test: MIC90 growth inhibition; type: cell-based, Candida albicans; conditions: RPMI 1640 one-fourth strength
Description: as §1

[1] = test system: Trichophyton interdigitalis; type: cell-based
Description: as §1
(§2) For two patients D, E who were treated with a solution comprising the high concentration of the antimicrobial peptide, in their nail samples strains of Trichophyton interdigitalis and Hypercrealis spp. were determined. […]

Hypercrealis spp. = type: cell-based; conditions: Hypercrealis spp. strain from nail samples of patients D, E
Description: as §1, §2

In the case of “GRRRRSVQWCA [hLF1-11, Gly Arg Arg Arg Arg Ser Val Gln Trp Cys Ala]”, the “Inhibitory concentration MIC (MIC90)” value (C. albicans CBS-562) is reported as “MIC = 25 μg/mL”, the “Inhibitory concentration MIC (MIC90)” value (C. albicans ATCC 10231) is reported as “MIC = 25 μg/mL” and the “Inhibitory concentration MIC (MIC90)” value (C. albicans (WT)) is reported as “MIC = 25 μg/ml”. The “Inhibitory concentration MIC (MIC90)” value (C. albicans CMC-1968) was “MIC = 25 μg/mL”, the “Inhibitory concentration MIC (MIC90)” value (C. albicans AA (LUMC)) was “MIC = 25 μg/mL” and the MIC90 value [1] was 50 µg/mL. The MIC90 value (Hypercrealis spp.) was 50 µg/mL.
